Test results from patent publication US6737383B1, “Herbicidal oxadiazolidines” (priority 1999, dated 2004).

Experiments:
[1] = test system: winter wheat; test: Test E winter wheat; format: in vivo, Triticum aestivum; conditions: Postemergence
Outline: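 Visual evaluation versus untreated controls after about 21 to 28 days in the greenhouse. Compound was in a surfactant-containing non-phytotoxic solvent; postemergence plants were treated at the 1- to 4-leaf stage, grown in a 60:40 sandy loam and potting mix blend.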

[2] = test system: purple nutsedge; test: Test B pre/postemergence purple nutsedge; format: in vivo, Cyperus rotundus
Outline: (§1)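 Response is a visual 0-to-10 score relative to untreated plants, where 0 means no effect and 10 means complete control, taken twelve to sixteen days after application. Treatments went onto soil at planting and onto foliage of 1- to 4-leaf plants, using a surfactant-containing non-phytotoxic solvent.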

[3] = test system: blackgrass; test: Test E blackgrass; format: in vivo, Alopecurus myosuroides; conditions: Preemergence
[4] = test system: green foxtail; test: Test E green foxtail; format: in vivo, Setaria viridis; conditions: Preemergence
[5] = test system: winter barley; test: Test E winter barley; format: in vivo, Hordeum vulgare; conditions: Preemergence
[6] = test system: common ragweed; test: Test D common ragweed; format: in vivo, Ambrosia elatior; conditions: Preemergence, 0 to 100 scale
Outline: (§2)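 Greenhouse pots, sandy loam, single species per pot. Preemergence tests: soil-surface application ≤1 day after planting. Compound formulated in non-phytotoxic solvent with surfactant. Visual rating 14–21 DAT, scale 0–100.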

[7] = test system: sugar beet; test: Test B pre/postemergence sugar beet; format: in vivo, Beta vulgaris; conditions: for Sugarbeets plant response rating (0 to 10 scale): 0 is no effect; for Plant response rating, Sugarbeets: Rate 250 g/ha
Outline: as §1

[8] = test system: winter wheat; test: Test E winter wheat; format: in vivo, Triticum aestivum; conditions: Preemergence
[9] = test system: wild oat; test: Test E wild oat; format: in vivo, Avena fatua; conditions: Preemergence
[10] = test system: duck salad; test: Test B flood test duck salad; format: in vivo, Heteranthera limosa
Outline: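 Read-out is a visual response score from 0 (no effect) to 10 (complete control), assigned by comparison with untreated controls. Treatment was applied at the 2-leaf stage, and plants stayed in the greenhouse for twelve to sixteen days before scoring.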

[11] = test system: bermuda-grass; test: Test D bermudagrass; format: in vivo, Cynodon dactylon; conditions: Preemergence, 0 to 100 scale
Outline: as §2

[12] = test system: Italian ryegrass; test: Test E Italian ryegrass; format: in vivo, Lolium multiflorum; conditions: Preemergence
[13] = test system: rape; test: Test B pre/postemergence rape; format: in vivo, Brassica napus
Outline: as §1

[14] = Rate 250 g/ha, 0 to 100 scale (0 no effect, 100 complete control)
[15] = Rate 500 g/ha, 0 to 100 scale, 0 no effect, 100 complete control
[16] = Postemergence, Rate 125 g/ha, scale of 0 to 10 where 0 is no effect and 10 is complete control
[17] = Postemergence, Rate 250 g/ha, scale 0 to 10, 0 no effect, 10 complete control
[18] = Preemergence, Rate 62 g/ha, scale 0 to 10 (0 no effect, 10 complete control)
[19] = Preemergence, Rate 125 g/ha, scale 0 to 10 (0 no effect, 10 complete control)
[20] = Preemergence, Rate 250 g/ha, scale of 0 to 10 where 0 is no effect and 10 is complete control
[21] = Preemergence, Rate 500 g/ha, scale 0 to 10 (0 no effect, 10 complete control)
[22] = Rate 62 g/ha, Postemergence, scale of 0 to 10 where 0 is no effect and 10 is complete control
[23] = Rate 500 g/ha, Postemergence, scale 0 to 10, 0 no effect, 10 complete control
[24] = Rate 62 g/ha, 0 to 100 scale, 0 no effect, 100 complete control
[25] = Rate 125 g/ha, 0 to 100 scale (0 no effect, 100 complete control)
[26] = Rate 500 g/ha, 0 to 100 scale where 0 is no effect and 100 is complete control
[27] = Rate 125 g/ha, 0 no injury, 100 complete control
[28] = Preemergence, Rate 125 g/ha, 10 is complete control
[29] = Preemergence, scale of 0 to 10 where 0 is no effect and 10 is complete control
[30] = Postemergence, scale 0 to 10, 0 is no effect, 10 is complete control
[31] = Postemergence (flood test species), Rate 125 g/ha, scale of 0 to 10 where 0 is no effect and 10 is complete control
[32] = Rate 62 g/ha, Postemergence section, flood test species, scale of 0 to 10 where 0 is no effect and 10 is complete control
[33] = Rate 500 g/ha, listed under Postemergence (flood test species), scale 0 to 10, 0 no effect, 10 complete control
[34] = flood test, listed under Postemergence, Rate 250 g/ha, scale 0 to 10, 0 no effect, 10 complete control
[35] = Rate 16 g/ha, 0 no injury, 100 complete control
[36] = Rate 32 g/ha, 0 no injury, 100 complete control
[37] = Rate 64 g/ha, 0 no injury, 100 complete control

CC(C)N(C(=O)n1oc(=O)n(C(C)C)c1=O)c1ccc(Cl)cc1 [Compound 114]
40: Plant response rating, Barley (winter) [5, 26] | Plant response rating, Wild oat [9, 25]
10: Plant response rating, Wheat (winter) ([1]; Rate 125 g/ha, 0 to 100 scale) | Plant response rating, Barley (winter) ([5]; Rate 250 g/ha, 0 to 100 scale) | Plant response rating, Wheat (winter) [8, 25] | Rape plant response rating [13, 21]
60: Plant response rating, Wheat (winter) [1, 14]
5: Plant response rating, Barley (winter) [5, 25] | Sugarbeets plant response rating [7, 23]
20: Plant response rating, Wheat (winter) [1, 15] | Plant response rating, Wild oat [9, 24] | Plant response rating, I. Ryegrass [12, 24]
95: Plant response rating, I. Ryegrass [12, 26]
4: Sugarbeets plant response rating [7, 18] | Plant response rating, Sugarbeets [7, 30]
70: Plant response rating, Wild oat [9, 26]
50: Plant response rating, Blackgrass [3, 25] | Plant response rating, Blackgrass ([3]; Rate 250 g/ha, 0 to 100 scale)
3: Sugarbeets plant response rating [7, 16] | Sugarbeets plant response rating [7, 22] | Rape plant response rating [13, 16] | Rape plant response rating [13, 17] | Plant response rating, Rape [13, 19] | Rape plant response rating [13, 22]
85: Plant response rating, Green foxtail [4, 26]
0: Plant response rating, Wheat (winter) ([1]; Rate 62 g/ha, 0 to 100 scale) | Nutsedge plant response rating [2, 16] | Nutsedge plant response rating [2, 17] | Nutsedge plant response rating [2, 18] | Plant response rating, Nutsedge [2, 19] | Plant response rating, Nutsedge [2, 20] | Nutsedge plant response rating [2, 21] | Nutsedge plant response rating [2, 22] | Nutsedge plant response rating [2, 23] | Plant response rating, Barley (winter) [5, 24] | Plant response rating, C. ragweed [6, 27] | Plant response rating, Wheat (winter) [8, 24] | Plant response rating, Wheat (winter) ([8]; Rate 250 g/ha, 0 to 100 scale) | Plant response rating, Wheat (winter) [8, 26] | Ducksalad plant response rating [10, 31] | Ducksalad plant response rating [10, 32] | Ducksalad plant response rating [10, 33] | Ducksalad plant response rating [10, 34] | Rape plant response rating [13, 18]
100: Plant response rating, Blackgrass [3, 26] | Plant response rating, Green foxtail [4, 25] | Plant response rating, Green foxtail ([4]; Rate 250 g/ha, 0 to 100 scale) | Plant response rating, Bermudagrass [11, 27] | Plant response rating, I. Ryegrass ([12]; Rate 250 g/ha, 0 to 100 scale)
7: Plant response rating, Sugarbeets [7, 29] | Sugarbeets plant response rating [7, 21] | Rape plant response rating [13, 23]
30: Plant response rating, Blackgrass [3, 24] | Plant response rating, I. Ryegrass [12, 25]
6: Sugarbeets plant response rating (0 to 10 scale) [7, 28] | Plant response rating, Rape [13, 20]
45: Plant response rating, Green foxtail [4, 24]

C=CCn1c(=O)on(C(=O)N(c2ccc(Cl)cc2)C(C)C)c1=O [Compound 105]
85: Plant response rating, Bermudagrass [11, 35] | Plant response rating, I. Ryegrass [12, 26]
55: Plant response rating, Green foxtail [4, 25] | Plant response rating, Wild oat [9, 26]
4: Plant response rating, Sugarbeets [7, 29] | Plant response rating, Rape [13, 20]
90: Plant response rating, Green foxtail ([4]; Rate 250 g/ha, 0 to 100 scale)
6: Rape plant response rating [13, 21]
2: Nutsedge plant response rating [2, 23] | Rape plant response rating [13, 23]
1: Sugarbeets plant response rating (0 to 10 scale) [7, 28] | Plant response rating, Rape [13, 19]
98: Plant response rating, Bermudagrass [11, 36] | Plant response rating, Bermudagrass [11, 37]
50: Plant response rating, Blackgrass ([3]; Rate 250 g/ha, 0 to 100 scale) | Plant response rating, Blackgrass [3, 26]
0: Nutsedge plant response rating [2, 16] | Nutsedge plant response rating [2, 17] | Nutsedge plant response rating [2, 18] | Plant response rating, Nutsedge [2, 19] | Plant response rating, Nutsedge [2, 20] | Nutsedge plant response rating [2, 21] | Nutsedge plant response rating [2, 22] | Plant response rating, Barley (winter) [5, 25] | Plant response rating, Barley (winter) ([5]; Rate 250 g/ha, 0 to 100 scale) | Plant response rating, C. ragweed [6, 35] | Plant response rating, C. ragweed [6, 36] | Plant response rating, C. ragweed [6, 37] | Plant response rating, C. ragweed [6, 27] | Plant response rating, C. ragweed ([6]; Rate 250 g/ha) | Plant response rating, C. ragweed ([6]; Rate 500 g/ha) | Sugarbeets plant response rating [7, 16] | Sugarbeets plant response rating [7, 18] | Sugarbeets plant response rating [7, 22] | Plant response rating, Sugarbeets [7, 30] | Sugarbeets plant response rating [7, 23] | Plant response rating, Wheat (winter) ([8]; Rate 250 g/ha, 0 to 100 scale) | Ducksalad plant response rating [10, 31] | Ducksalad plant response rating [10, 32] | Ducksalad plant response rating ([10]; Rate 250 g/ha, headed Pre-emergence (flood test species), scale 0 to 10 (0 no effect, 10 complete control)) | Plant response rating, Ducksalad ([10]; Rate 500 g/ha, headed Pre-emergence (flood test species), scale 0 to 10 (0 no effect, 10 complete control)) | Ducksalad plant response rating [10, 33] | Ducksalad plant response rating ([10]; Rate 1000 g/ha, Pre-emergence (as headed), scale 0 to 10) | Ducksalad plant response rating ([10]; Rate 2000 g/ha, Pre-emergence (as headed), scale 0 to 10) | Ducksalad plant response rating [10, 34] | Rape plant response rating [13, 16] | Rape plant response rating [13, 17] | Rape plant response rating [13, 18] | Rape plant response rating [13, 22]
20: Plant response rating, Wheat (winter) [1, 15] | Plant response rating, Blackgrass [3, 25]
100: Plant response rating, Green foxtail [4, 26] | Plant response rating, Bermudagrass [11, 27] | Plant response rating, Bermudagrass ([11]; Rate 250 g/ha) | Plant response rating, Bermudagrass ([11]; Rate 500 g/ha)
9: Sugarbeets plant response rating [7, 21]
30: Plant response rating, Wild oat [9, 25] | Plant response rating, I. Ryegrass [12, 25] | Plant response rating, I. Ryegrass ([12]; Rate 250 g/ha, 0 to 100 scale)
10: Plant response rating, Wheat (winter) ([1]; Rate 125 g/ha, 0 to 100 scale) | Plant response rating, Wheat (winter) [1, 14] | Plant response rating, Barley (winter) [5, 26] | Plant response rating, Wheat (winter) [8, 25] | Plant response rating, Wheat (winter) [8, 26]
